Test results taken from US7807677B2, “HIV protease inhibitors” (Medivir AB, priority 2005, dated 2010).
Read-outs that look alike come from different tables or passages of the source.

How the values were obtained:
[1] = cited from earlier work
[2] = tested on: cytochrome P450 3A enzyme; details: inhibitor of the cytochrome P450 3A enzyme; cited from earlier work
HIV-1 protease [3] = target: T1, HIV-1 protease (Human immunodeficiency virus type 1 group M subtype B, UniProt P04585); assay: biochemical
HIV-1IIIB (wild type) = assay: Antiviral activity in cell culture (XTT assay in MT-4 cells); format: cell-based; details: Human immunodeficiency virus 1, MT4, read-out: ED50 (μM)
Protocol: Compounds of the invention are assayed for HIV activity, for example using multiple determinations with XTT in MT-4 cells (Weislow et al, J Nat Cancer Inst 1989, vol 81 no 8, 577 et seq), preferably including determinations in the presence of 40-50% human serum to indicate the contribution of protein binding. In short the XTT assay uses human T cell line MT4 cells grown in RPMI 1640 medium supplemented with 10% fetal calf serum (or 40-50% human serum as appropriate), penicillin and streptomycin seeded into 96 well microplates (2·10^4 cells/well) infected with 10-20 TCID50 per well of HIV-1IIIB (wild type) or mutant virus, such as those bearing RT Ile 100, Cys 181 or Asn 103 mutations. Serially diluted test compounds are added to respective wells and the culture incubated at 37° C. in a CO2 enriched atmosphere and the viability of cells is determined at day five or six with XTT vital dye. Results are typically presented as ED50 μM.
Exp. Med. Biol., 1998, 436, 99-103. […] Agents Chemother., 1997, 41, 2383-2388.

HIV-1 protease [4] = target: T1, HIV-1 protease; details: Enzyme Inhibition

Compound: COC(=O)N[C@H](C(=O)N[C@@H](Cc1ccccc1)[C@@H](O)CN(Cc1ccc(-c2ccccn2)cc1)NC(=O)[C@@H](NC(=O)OC)C(C)(C)C)C(C)(C)C [Atazanavir, atazanavir]
- increase in exposure (saquinavir) ([1]; due to combination with atazanavir, multiple-dose pharmacology study): greater than 3 fold
- Ki [2]: 2400 nM

Compound: CC(C)[C@H](NC(=O)OCc1ccccc1)C(=O)NN(Cc1ccccc1)C[C@@](O)(Cc1ccccc1)C(=O)N[C@H]1c2ccccc2C[C@H]1O [Compound 11, {(1S)-1-[N′-Benzyl-N′-((2S)-2-hydroxy-2-((1S,2R)-2-hydroxy-indan-1-ylcarbamoyl)-3-phenyl-propyl)-hydrazinocarbonyl]-2-methyl-propyl}-carbamic acid benzyl ester]
- Ki (HIV-1 protease [3]): 11 to 50 nM

Compound: CC(C)(C)[C@H](NC(=O)OCc1ccccc1)C(=O)NN(Cc1ccccc1)C[C@@](O)(Cc1ccccc1)C(=O)N[C@H]1c2ccccc2C[C@H]1O [Compound 13, {(1S)-1-[N′-Benzyl-N′-((2S)-2-hydroxy-2-((1S,2R)-2-hydroxy-indan-1-ylcarbamoyl)-3-phenyl-propyl)-hydrazinocarbonyl]-2,2-dimethyl-propyl}-carbamic acid benzyl ester]
- Ki (HIV-1 protease [3]): 11 to 50 nM

Compound: COC(=O)N[C@H](C(=O)NN(Cc1ccccc1)C[C@@](O)(Cc1ccccc1)C(=O)N[C@H]1c2ccccc2C[C@H]1O)C(C)C [Compound 14, {(1S)-1-[N′-Benzyl-N′-((2S)-2-hydroxy-2-((1S,2R)-2-hydroxy-indan-1-ylcarbamoyl)-3-phenyl-propyl)-hydrazinocarbonyl]-2-methyl-propyl}-carbamic acid methyl ester]
- Ki (HIV-1 protease [3]): < 10 nM
- EC50 (HIV-1IIIB (wild type)): 2 to 10 µM

Compound: COC(=O)N[C@H](C(=O)NN(Cc1ccccc1)C[C@@](O)(Cc1ccccc1)C(=O)N[C@H]1c2ccccc2C[C@H]1O)C(C)(C)C [Compound 15, {(1S)-1-[N′-Benzyl-N′-((2S)-2-hydroxy-2-((1S,2R)-2-hydroxy-indan-1-ylcarbamoyl)-3-phenyl-propyl)-hydrazinocarbonyl]-2,2-dimethyl-propyl}-carbamic acid methyl ester]
- Ki (HIV-1 protease [3]): < 10 nM
- EC50 (HIV-1IIIB (wild type)): 2 to 10 µM

Compound: CC(C)(C)[C@H](NS(C)(=O)=O)C(=O)NN(Cc1ccccc1)C[C@@](O)(Cc1ccccc1)C(=O)N[C@H]1c2ccccc2C[C@H]1O [Compound 17, (2S)-2-Benzyl-3-[N-benzyl-N′-((2S)-2-methanesulfonylamino-3,3-dimethyl-butyryl)-hydrazino]-2-hydroxy-N-((1S,2R)-2-hydroxy-indan-1-yl)-propionamide]
- Ki (HIV-1 protease [3]): 50 to 100 nM

Compound: CC(C)(C)[C@H](NC(=O)NCc1ccccc1)C(=O)NN(Cc1ccccc1)C[C@@](O)(Cc1ccccc1)C(=O)N[C@H]1c2ccccc2C[C@H]1O [Compound 18, (2S)-2-Benzyl-3-{N-Benzyl-N′-[(2S)-2-(3-benzyl-ureido)-3,3-dimethyl-butyryl]-hydrazino}-2-hydroxy-N-((1S,2R)-2-hydroxy-indan-1-yl)-propionamide]
- Ki (HIV-1 protease [3]): 11 to 50 nM

Compound: COC(=O)N[C@H](C(=O)NN(Cc1ccc(Br)cc1)C[C@@](O)(Cc1ccccc1)C(=O)N[C@H]1c2ccccc2C[C@H]1O)C(C)(C)C [Compound 19, {(1S)-1-[N′-(4-Bromo-benzyl)-N′-((2S)-2-hydroxy-2-((1S,2R)-2-hydroxy-indan-1-ylcarbamoyl)-3-phenyl-propyl)-hydrazinocarbonyl]-2,2-dimethyl-propyl}-carbamic acid methyl ester]
- EC50 (HIV-1IIIB (wild type)): < 2 µM

Compound: Cc1c(O)cccc1C(=O)N[C@@H](CSc1ccccc1)[C@H](O)CN1C[C@H]2CCCC[C@H]2C[C@H]1C(=O)NC(C)(C)C [nelfinavir]
- increase the exposure of saquinavir ([1]; saquinavir dosed at 1200 mg thrice-daily (TID), at steady-state): 392%

Compound: {(1S)-1-[N′-(4-Bromo-benzyl)-N′-((2S)-2-hydroxy-2-((1S,2R)-2-hydroxy-indan-1-ylcarbamoyl)-3-phenyl-propyl)-hydrazinocarbonyl]-2-methyl-propyl}-carbamic acid benzyl ester [Compound 20]
- Ki (HIV-1 protease [4]): 11 to 50 nM
